From ChEMBL document CHEMBL4507261, “Data for DCP probe A-192621” (2021)

How the values were obtained:
[1] = target: T1, Alpha-1A adrenergic receptor (Homo sapiens) (UniProt P35348); assay: Alpha1A (h) Eurofins-Cerep binding assay; design: ligand concentration 0.1 nM; conditions: filed as antagonist, Compound concentration 10.0 uM
T1 sequence (whole entry): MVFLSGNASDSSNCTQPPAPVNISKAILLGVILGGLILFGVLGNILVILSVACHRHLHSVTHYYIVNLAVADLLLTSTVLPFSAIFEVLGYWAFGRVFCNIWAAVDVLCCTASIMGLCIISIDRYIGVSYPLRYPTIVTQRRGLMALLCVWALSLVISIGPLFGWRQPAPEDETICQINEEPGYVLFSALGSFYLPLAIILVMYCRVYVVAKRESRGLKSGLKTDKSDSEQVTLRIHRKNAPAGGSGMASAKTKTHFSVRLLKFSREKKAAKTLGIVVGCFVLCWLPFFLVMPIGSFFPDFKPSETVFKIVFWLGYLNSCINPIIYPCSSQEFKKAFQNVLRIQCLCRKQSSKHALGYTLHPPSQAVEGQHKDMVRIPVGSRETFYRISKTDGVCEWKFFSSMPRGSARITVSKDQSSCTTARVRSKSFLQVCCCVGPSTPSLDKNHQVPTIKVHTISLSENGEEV

[2] = target: T2, Alpha-1B adrenergic receptor (Homo sapiens) (UniProt P35368); assay: Alpha1B (h) Eurofins-Cerep binding assay; conditions: filed as antagonist, Compound concentration 10.0 uM
T2 sequence (whole entry): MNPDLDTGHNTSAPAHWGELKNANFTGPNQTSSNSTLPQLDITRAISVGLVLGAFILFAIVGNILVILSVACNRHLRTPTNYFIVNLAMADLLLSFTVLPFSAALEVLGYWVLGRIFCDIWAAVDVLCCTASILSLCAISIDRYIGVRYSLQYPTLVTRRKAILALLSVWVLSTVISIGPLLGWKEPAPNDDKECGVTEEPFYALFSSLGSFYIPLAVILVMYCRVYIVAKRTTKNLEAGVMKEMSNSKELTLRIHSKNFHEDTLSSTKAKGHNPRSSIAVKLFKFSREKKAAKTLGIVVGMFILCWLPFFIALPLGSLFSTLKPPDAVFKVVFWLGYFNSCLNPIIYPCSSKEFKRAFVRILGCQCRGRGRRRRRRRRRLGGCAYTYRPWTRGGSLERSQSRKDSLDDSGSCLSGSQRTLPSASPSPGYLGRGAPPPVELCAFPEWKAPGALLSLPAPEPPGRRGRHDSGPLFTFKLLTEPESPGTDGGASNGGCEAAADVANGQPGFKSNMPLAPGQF

[3] = target: Cholecystokinin receptor type A (Homo sapiens) (UniProt P32238); assay: CCK1 (CCKA) (h) Eurofins-Cerep binding assay; design: ligand concentration 0.08 nM; conditions: filed as agonist, Compound concentration 10.0 uM
[4] = target: Histamine H2 receptor (Homo sapiens) (UniProt P25021); assay: H2 (h) Eurofins-Cerep binding assay; design: ligand concentration 0.075 nM; conditions: filed as antagonist, Compound concentration 10.0 uM
[5] = target: MAO-A (amine oxidase [flavin-containing] A) (Rattus norvegicus, UniProt P21396); assay: MAO-A Eurofins-Cerep binding assay; design: incubation time 60 min, incubation temperature 37°C, ligand concentration 10 nM; conditions: rat cerebral cortex (source of protein), probe [3H]Ro 41-1049 (10 nM), compound concentration 10 uM, read-out: % Inhibition of Control Specific Binding (Mean n=2)
[6] = target: Delta-type opioid receptor (Homo sapiens) (UniProt P41143); assay: delta (DOP) (h) Eurofins-Cerep binding assay; design: ligand concentration 0.5 nM; conditions: filed as agonist, Compound concentration 10.0 uM
[7] = target: P2X receptor (Rattus norvegicus) (UniProt P51579+P49653+P51578+Q64663+P47824+P51577+P49654); assay: P2X Eurofins-Cerep binding assay; assay type: protein assay; design: ligand concentration 3 nM; conditions: filed as agonist, Compound concentration 10.0 uM
[8] = target: Androgen receptor (Homo sapiens) (UniProt P10275); assay: AR (h) Eurofins-Cerep binding assay; design: ligand concentration 1 nM; conditions: filed as agonist, Compound concentration 10.0 uM
[9] = target: Urotensin-2 receptor (Homo sapiens) (UniProt Q9UKP6); assay: UT (h) Eurofins-Cerep binding assay; design: ligand concentration 0.1 nM; conditions: filed as agonist, Compound concentration 10.0 uM
[10] = system: Tyrosine-protein kinase ABL1 (Homo sapiens), P00519 [E255K]; conditions: Compound concentration 1000.0 nM
[11] = target: Activin receptor type-1B (Homo sapiens) (UniProt P36896); conditions: Compound concentration 1000.0 nM
[12] = target: Aurora kinase C (Homo sapiens) (UniProt Q9UQB9); conditions: Compound concentration 1000.0 nM
[13] = target: Cytoplasmic tyrosine-protein kinase BMX (Homo sapiens) (UniProt P51813); conditions: Compound concentration 1000.0 nM
[14] = target: Death-associated protein kinase 3 (Homo sapiens) (UniProt O43293); conditions: Compound concentration 1000.0 nM
[15] = system: Epidermal growth factor receptor (Homo sapiens), P00533 [L861Q]; conditions: Compound concentration 1000.0 nM
[16] = target: Ephrin type-A receptor 3 (Homo sapiens) (UniProt P29320); conditions: Compound concentration 1000.0 nM
[17] = target: Receptor tyrosine-protein kinase erbB-3 (Homo sapiens) (UniProt P21860); conditions: Compound concentration 1000.0 nM
[18] = target: Serine/threonine-protein kinase/endoribonuclease IRE1 (Homo sapiens) (UniProt O75460); conditions: Compound concentration 1000.0 nM
[19] = target: Tyrosine-protein kinase Fes/Fps (Homo sapiens) (UniProt P07332); conditions: Compound concentration 1000.0 nM
[20] = system: Receptor-type tyrosine-protein kinase FLT3 (Homo sapiens), P36888 [K663Q]; conditions: Compound concentration 1000.0 nM
[21] = target: Tyrosine-protein kinase JAK3 (Homo sapiens) (UniProt P52333); conditions: Compound concentration 1000.0 nM
[22] = target: Myosin light chain kinase family member 4 (Homo sapiens) (UniProt Q86YV6); conditions: Compound concentration 1000.0 nM
[23] = target: Serine/threonine-protein kinase 38 (Homo sapiens) (UniProt Q15208); conditions: Compound concentration 1000.0 nM
[24] = target: Platelet-derived growth factor receptor beta (Homo sapiens) (UniProt P09619); conditions: Compound concentration 1000.0 nM
[25] = system: Phosphatidylinositol 4,5-bisphosphate 3-kinase catalytic subunit alpha isoform (Homo sapiens), P42336 [C420R]; conditions: Compound concentration 1000.0 nM
[26] = target: Serine/threonine-protein kinase PLK3 (Homo sapiens) (UniProt Q9H4B4); conditions: Compound concentration 1000.0 nM
[27] = target: Serine/threonine-protein kinase D2 (Homo sapiens) (UniProt Q9BZL6); conditions: Compound concentration 1000.0 nM
[28] = target: Proto-oncogene tyrosine-protein kinase Src (Homo sapiens) (UniProt P12931); conditions: Compound concentration 1000.0 nM
[29] = target: Angiopoietin-1 receptor (Homo sapiens) (UniProt Q02763); conditions: Compound concentration 1000.0 nM
[30] = target: High affinity nerve growth factor receptor (Homo sapiens) (UniProt P04629); conditions: Compound concentration 1000.0 nM
[31] = target: Wee1-like protein kinase (Homo sapiens) (UniProt P30291); conditions: Compound concentration 1000.0 nM

Chain of Myosin light chain kinase family member 4 (Homo sapiens) (Q86YV6 whole entry): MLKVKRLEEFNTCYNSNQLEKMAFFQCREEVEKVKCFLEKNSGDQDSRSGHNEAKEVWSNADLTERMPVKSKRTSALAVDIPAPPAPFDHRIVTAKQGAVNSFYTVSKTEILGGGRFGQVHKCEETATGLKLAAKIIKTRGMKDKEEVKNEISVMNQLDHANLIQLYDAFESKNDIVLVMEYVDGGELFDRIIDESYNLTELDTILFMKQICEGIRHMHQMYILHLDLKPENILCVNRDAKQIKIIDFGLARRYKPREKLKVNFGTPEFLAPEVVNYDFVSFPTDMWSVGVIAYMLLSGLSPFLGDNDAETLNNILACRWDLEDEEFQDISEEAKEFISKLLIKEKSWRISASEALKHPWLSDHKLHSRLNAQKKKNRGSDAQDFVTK
Chain of Phosphatidylinositol 4,5-bisphosphate 3-kinase catalytic subunit alpha isoform (Homo sapiens), P42336 [C420R] (P42336 whole entry C420R, canonical isoform): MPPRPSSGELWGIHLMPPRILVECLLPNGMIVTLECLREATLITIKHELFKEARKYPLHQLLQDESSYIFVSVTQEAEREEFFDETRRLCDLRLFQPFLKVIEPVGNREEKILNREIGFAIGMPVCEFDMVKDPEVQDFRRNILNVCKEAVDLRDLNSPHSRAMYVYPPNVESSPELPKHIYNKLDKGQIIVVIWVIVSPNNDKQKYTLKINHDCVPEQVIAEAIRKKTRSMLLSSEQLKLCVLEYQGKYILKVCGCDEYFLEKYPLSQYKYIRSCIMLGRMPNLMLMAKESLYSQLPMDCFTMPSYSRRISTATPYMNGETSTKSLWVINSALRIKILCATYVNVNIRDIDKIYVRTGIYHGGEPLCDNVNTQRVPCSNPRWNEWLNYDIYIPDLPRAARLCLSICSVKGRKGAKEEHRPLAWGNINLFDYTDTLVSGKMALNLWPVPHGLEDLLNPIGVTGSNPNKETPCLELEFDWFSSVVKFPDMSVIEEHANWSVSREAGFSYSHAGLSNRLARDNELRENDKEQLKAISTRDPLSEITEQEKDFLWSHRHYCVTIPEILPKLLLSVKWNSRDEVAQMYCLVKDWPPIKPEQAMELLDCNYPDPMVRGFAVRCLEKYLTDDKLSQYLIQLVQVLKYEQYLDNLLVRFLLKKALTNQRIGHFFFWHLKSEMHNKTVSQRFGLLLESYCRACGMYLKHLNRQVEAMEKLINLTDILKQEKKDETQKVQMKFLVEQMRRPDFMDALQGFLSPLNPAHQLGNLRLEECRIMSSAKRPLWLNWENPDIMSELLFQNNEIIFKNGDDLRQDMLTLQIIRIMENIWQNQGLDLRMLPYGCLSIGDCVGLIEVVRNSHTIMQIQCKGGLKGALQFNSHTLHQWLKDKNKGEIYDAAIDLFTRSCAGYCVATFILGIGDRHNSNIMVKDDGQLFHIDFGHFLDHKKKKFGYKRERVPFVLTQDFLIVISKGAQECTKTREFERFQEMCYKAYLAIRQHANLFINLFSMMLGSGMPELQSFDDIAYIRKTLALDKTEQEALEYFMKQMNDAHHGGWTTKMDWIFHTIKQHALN
Chain of Urotensin-2 receptor (Homo sapiens) (Q9UKP6 whole entry): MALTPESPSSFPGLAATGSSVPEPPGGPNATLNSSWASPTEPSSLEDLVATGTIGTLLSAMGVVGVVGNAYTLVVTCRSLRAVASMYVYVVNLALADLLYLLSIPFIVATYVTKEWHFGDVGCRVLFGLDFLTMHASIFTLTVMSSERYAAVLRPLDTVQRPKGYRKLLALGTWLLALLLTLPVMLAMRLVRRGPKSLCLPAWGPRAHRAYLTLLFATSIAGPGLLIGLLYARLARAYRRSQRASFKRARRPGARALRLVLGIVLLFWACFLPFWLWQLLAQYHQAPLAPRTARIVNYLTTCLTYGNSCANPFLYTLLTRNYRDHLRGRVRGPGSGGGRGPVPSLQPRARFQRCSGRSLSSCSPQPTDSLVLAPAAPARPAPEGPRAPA
Chain of Platelet-derived growth factor receptor beta (Homo sapiens) (P09619 whole entry, canonical isoform): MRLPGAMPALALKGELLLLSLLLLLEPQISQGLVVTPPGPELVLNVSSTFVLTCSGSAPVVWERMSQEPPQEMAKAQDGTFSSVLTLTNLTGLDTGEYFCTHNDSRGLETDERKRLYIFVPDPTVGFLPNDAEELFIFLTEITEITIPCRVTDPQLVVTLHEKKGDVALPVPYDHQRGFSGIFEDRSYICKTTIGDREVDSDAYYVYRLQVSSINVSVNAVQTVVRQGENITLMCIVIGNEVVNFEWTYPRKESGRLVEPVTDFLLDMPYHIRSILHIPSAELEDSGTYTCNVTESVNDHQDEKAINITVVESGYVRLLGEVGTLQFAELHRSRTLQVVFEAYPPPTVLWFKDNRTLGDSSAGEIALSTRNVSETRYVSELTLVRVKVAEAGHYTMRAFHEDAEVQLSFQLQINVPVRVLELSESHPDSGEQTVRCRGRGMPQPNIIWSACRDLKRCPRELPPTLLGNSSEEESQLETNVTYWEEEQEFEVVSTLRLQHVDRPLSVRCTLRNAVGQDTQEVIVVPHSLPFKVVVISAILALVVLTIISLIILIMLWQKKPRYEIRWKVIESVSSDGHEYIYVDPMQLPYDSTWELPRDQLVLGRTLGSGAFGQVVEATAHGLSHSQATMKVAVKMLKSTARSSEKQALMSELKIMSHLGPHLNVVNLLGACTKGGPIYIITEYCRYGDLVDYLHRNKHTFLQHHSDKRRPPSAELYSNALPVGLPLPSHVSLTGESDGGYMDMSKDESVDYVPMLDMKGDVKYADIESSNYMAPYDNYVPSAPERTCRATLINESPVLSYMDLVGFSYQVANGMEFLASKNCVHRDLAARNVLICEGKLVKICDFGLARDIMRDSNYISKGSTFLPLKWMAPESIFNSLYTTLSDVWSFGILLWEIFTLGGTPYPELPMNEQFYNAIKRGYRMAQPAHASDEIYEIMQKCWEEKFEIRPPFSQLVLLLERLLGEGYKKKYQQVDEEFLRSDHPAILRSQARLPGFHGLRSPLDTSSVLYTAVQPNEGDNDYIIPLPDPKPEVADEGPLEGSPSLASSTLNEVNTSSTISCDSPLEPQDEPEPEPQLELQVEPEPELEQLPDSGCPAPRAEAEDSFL
Chain of Proto-oncogene tyrosine-protein kinase Src (Homo sapiens) (P12931 2-536 limits assumed): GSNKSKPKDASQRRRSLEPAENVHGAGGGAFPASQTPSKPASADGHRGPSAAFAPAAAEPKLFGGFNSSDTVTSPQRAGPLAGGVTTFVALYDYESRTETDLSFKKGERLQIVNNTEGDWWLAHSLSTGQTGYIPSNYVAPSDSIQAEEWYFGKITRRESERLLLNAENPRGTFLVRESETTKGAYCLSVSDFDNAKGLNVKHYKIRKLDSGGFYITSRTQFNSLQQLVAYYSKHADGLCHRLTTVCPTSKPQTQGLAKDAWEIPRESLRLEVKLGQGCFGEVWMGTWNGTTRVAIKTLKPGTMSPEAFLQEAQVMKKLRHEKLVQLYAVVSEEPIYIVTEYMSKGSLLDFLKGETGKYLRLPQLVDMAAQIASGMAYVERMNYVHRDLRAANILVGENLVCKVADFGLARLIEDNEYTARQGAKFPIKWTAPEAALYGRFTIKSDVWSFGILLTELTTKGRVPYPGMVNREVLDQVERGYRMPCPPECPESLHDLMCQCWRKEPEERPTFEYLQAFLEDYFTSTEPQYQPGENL
Chain of Serine/threonine-protein kinase PLK3 (Homo sapiens) (Q9H4B4 whole entry, looked up): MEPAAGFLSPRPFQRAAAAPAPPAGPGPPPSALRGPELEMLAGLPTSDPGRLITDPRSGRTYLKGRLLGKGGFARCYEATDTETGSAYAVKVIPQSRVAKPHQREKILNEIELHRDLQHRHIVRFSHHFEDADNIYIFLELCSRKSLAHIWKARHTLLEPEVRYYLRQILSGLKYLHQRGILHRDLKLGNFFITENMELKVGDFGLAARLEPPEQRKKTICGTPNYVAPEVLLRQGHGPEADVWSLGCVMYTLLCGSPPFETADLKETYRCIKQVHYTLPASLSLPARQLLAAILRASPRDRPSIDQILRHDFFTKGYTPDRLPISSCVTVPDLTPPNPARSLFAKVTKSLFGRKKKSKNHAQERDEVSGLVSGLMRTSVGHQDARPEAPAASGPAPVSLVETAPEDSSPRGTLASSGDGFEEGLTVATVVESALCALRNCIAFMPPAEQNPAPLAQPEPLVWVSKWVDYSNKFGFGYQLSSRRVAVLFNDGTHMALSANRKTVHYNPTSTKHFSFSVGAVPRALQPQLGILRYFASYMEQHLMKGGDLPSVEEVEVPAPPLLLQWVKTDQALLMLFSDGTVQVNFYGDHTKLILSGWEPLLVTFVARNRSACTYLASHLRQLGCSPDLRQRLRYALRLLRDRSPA
Chain of Tyrosine-protein kinase Fes/Fps (Homo sapiens) (P07332 whole entry): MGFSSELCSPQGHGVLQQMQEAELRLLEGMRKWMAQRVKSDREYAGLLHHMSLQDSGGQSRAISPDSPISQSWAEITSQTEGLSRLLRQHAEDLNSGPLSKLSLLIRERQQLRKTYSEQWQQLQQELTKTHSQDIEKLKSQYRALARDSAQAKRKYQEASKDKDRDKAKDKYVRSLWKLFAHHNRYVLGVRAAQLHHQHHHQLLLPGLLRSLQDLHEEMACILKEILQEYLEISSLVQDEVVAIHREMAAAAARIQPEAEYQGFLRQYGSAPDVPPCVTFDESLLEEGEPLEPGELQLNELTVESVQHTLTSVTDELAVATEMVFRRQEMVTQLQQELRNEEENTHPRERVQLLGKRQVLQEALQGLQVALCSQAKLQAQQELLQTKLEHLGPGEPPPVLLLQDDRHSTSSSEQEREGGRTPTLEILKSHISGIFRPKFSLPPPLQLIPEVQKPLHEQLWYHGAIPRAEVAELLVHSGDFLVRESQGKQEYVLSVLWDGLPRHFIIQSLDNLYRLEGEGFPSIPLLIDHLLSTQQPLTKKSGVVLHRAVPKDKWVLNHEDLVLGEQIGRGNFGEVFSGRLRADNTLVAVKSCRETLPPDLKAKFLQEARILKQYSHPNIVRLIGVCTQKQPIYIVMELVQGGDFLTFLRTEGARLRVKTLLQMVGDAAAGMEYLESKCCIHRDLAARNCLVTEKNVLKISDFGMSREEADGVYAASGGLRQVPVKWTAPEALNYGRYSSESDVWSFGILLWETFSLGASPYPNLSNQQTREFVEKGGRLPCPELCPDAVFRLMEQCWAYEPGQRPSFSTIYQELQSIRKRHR

**Q.** With `CCCOc1ccc([C@H]2[C@H](C(=O)O)[C@@H](c3ccc4c(c3)OCO4)CN2CC(=O)Nc2c(CC)cccc2CC)cc1` [A-192621] as the compound, how does the % Inhibition of Control Specific Binding (Mean n=2) [1] read?
**A.** 5%

**Q.** And the % Inhibition of Control Specific Binding (Mean n=2) [2]?
**A.** 3.2%

**Q.** What about the % Inhibition of Control Specific Binding (Mean n=2) [3] of the same compound?
**A.** 63.1%

**Q.** And the % Inhibition of Control Specific Binding (Mean n=2) [4]?
**A.** -35.3%

**Q.** And the inhibition at 60 min, 10 µM [5]?
**A.** 7.9%

**Q.** And the % Inhibition of Control Specific Binding (Mean n=2) [6]?
**A.** 33.5%

**Q.** And the % Inhibition of Control Specific Binding (Mean n=2) [7]?
**A.** -2.8%

**Q.** And the % Inhibition of Control Specific Binding (Mean n=2) [8]?
**A.** -11.6%

**Q.** What about the % Inhibition of Control Specific Binding (Mean n=2) [9] of the same compound?
**A.** 23.9%

**Q.** What about the residual activity [10] of the same compound?
**A.** 70%

**Q.** And the residual activity [11]?
**A.** 99%

**Q.** What about the residual activity [12] of the same compound?
**A.** 91%

**Q.** What about the residual activity [13] of the same compound?
**A.** 100%

**Q.** And the residual activity [14]?
**A.** 89%

**Q.** And the residual activity [15]?
**A.** 100%

**Q.** What about the residual activity [16] of the same compound?
**A.** 86%

**Q.** What about the residual activity [17] of the same compound?
**A.** 78%

**Q.** What about the residual activity [18] of the same compound?
**A.** 86%

**Q.** And the residual activity [19]?
**A.** 96%

**Q.** And the residual activity [20]?
**A.** 100%

**Q.** What about the residual activity [21] of the same compound?
**A.** 84%

**Q.** What about the residual activity [22] of the same compound?
**A.** 75%

**Q.** And the residual activity [23]?
**A.** 77%

**Q.** And the residual activity [24]?
**A.** 100%

**Q.** And the residual activity [25]?
**A.** 95%

**Q.** And the residual activity [26]?
**A.** 83%

**Q.** What about the residual activity [27] of the same compound?
**A.** 84%

**Q.** What about the residual activity [28] of the same compound?
**A.** 99%

**Q.** What about the residual activity [29] of the same compound?
**A.** 100%

**Q.** What about the residual activity [30] of the same compound?
**A.** 84%

**Q.** What about the residual activity [31] of the same compound?
**A.** 93%

**Q.** How did the % Inhibition of Control Specific Binding (Mean n=2) [1] turn out when `CCCOc1ccc([C@@H]2[C@@H](C(=O)O)[C@H](c3ccc4c(c3)OCO4)CN2CC(=O)Nc2c(CC)cccc2CC)cc1` [A-1806262] was run?
**A.** 3.7%

**Q.** And the % Inhibition of Control Specific Binding (Mean n=2) [2]?
**A.** 3.1%

**Q.** And the % Inhibition of Control Specific Binding (Mean n=2) [3]?
**A.** 75.9%

**Q.** What about the % Inhibition of Control Specific Binding (Mean n=2) [4] of the same compound?
**A.** -18.1%

**Q.** And the inhibition at 60 min, 10 µM [5]?
**A.** 9.9%

**Q.** What about the % Inhibition of Control Specific Binding (Mean n=2) [6] of the same compound?
**A.** 23.5%

**Q.** And the % Inhibition of Control Specific Binding (Mean n=2) [7]?
**A.** 13.4%

**Q.** What about the % Inhibition of Control Specific Binding (Mean n=2) [8] of the same compound?
**A.** -11.6%

**Q.** What about the % Inhibition of Control Specific Binding (Mean n=2) [9] of the same compound?
**A.** 9.4%

**Q.** What about the residual activity [10] of the same compound?
**A.** 82%

**Q.** And the residual activity [11]?
**A.** 90%

**Q.** And the residual activity [12]?
**A.** 94%

**Q.** What about the residual activity [13] of the same compound?
**A.** 100%

**Q.** And the residual activity [14]?
**A.** 79%

**Q.** And the residual activity [15]?
**A.** 100%

**Q.** What about the residual activity [16] of the same compound?
**A.** 99%

**Q.** What about the residual activity [17] of the same compound?
**A.** 84%

**Q.** What about the residual activity [18] of the same compound?
**A.** 90%

**Q.** What about the residual activity [19] of the same compound?
**A.** 97%

**Q.** What about the residual activity [20] of the same compound?
**A.** 100%

**Q.** What about the residual activity [21] of the same compound?
**A.** 73%

**Q.** What about the residual activity [22] of the same compound?
**A.** 100%

**Q.** And the residual activity [23]?
**A.** 83%

**Q.** What about the residual activity [24] of the same compound?
**A.** 100%

**Q.** And the residual activity [25]?
**A.** 100%

**Q.** And the residual activity [26]?
**A.** 88%

**Q.** And the residual activity [27]?
**A.** 100%

**Q.** And the residual activity [28]?
**A.** 100%

**Q.** What about the residual activity [29] of the same compound?
**A.** 86%

**Q.** And the residual activity [30]?
**A.** 97%

**Q.** And the residual activity [31]?
**A.** 95%
